Results on two compounds are retold here after ChEMBL document CHEMBL1129808, “A novel photoaffinity label for the dopamine transporter based on N-substituted 3-[bis(4-fluorophenyl)methoxy]tropane” (Bioorg Med Chem Lett, 1997).

The Ki is a measure of affinity in units of concentration, obtained from inhibition or displacement.

In the assay the target is Sodium-dependent dopamine transporter (Rattus norvegicus, UniProt P23977). Briefly: The compound was tested for binding affinity towards dopamine transporter in rat caudate putamen. In kind it is tissue-based.
Sodium-dependent dopamine transporter, sequence (P23977 whole entry): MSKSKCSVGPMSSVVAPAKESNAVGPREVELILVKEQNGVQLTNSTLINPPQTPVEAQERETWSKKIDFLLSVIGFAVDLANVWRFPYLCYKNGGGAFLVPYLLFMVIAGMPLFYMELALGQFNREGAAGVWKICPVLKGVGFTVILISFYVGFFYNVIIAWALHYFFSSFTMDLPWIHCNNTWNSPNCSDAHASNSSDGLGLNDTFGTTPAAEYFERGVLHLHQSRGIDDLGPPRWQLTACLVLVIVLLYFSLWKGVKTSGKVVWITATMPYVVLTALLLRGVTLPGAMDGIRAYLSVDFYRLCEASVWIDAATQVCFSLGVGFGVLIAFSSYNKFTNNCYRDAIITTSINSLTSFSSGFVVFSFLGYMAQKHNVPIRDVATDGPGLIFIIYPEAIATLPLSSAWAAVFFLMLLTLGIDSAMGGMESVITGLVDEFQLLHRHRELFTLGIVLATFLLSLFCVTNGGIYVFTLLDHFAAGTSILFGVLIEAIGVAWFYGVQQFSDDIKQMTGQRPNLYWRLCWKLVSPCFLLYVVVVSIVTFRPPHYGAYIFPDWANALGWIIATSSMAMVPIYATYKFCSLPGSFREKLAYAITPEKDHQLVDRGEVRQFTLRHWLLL

`Nc1ccc(CCCCN2[C@@H]3CC[C@H]2C[C@@H](OC(c2ccc(F)cc2)c2ccc(F)cc2)C3)cc1` displayed a Ki of 0.0297 µM. With `[N-]=[N+]=Nc1ccc(CCCCN2[C@@H]3CC[C@H]2C[C@@H](OC(c2ccc(F)cc2)c2ccc(F)cc2)C3)cc1I` the figure was 0.159 µM.
